Tests used:
[1] = test system: NB4 cells (human promyelocitic leukemia); experiment: Differentiation of NB4 cells into granulocytes, NBT dye reduction, spectrophotometric assay at 540 nm; assay type: cell-based; details: 2-3 days, FIG. 2
Protocol: The pro-differentiative activity of the spirolaxine (ST 1397) and the ATRA, both alone and in association, was assessed in this experimental model.
NB4 cells were grown in 25 cm^2 flasks at a density of approx 100.000 cells/ml in 5 ml of RPMI 1640 culture with 10% fetal calf serum (FCS). After one day, the cells were treated with ATRA at a concentration of 10^−7 M, or with ST 1397 at doses of 0,1, 0,5 and 1 μM, or with equivalent volumes of the two compounds in association. Then, the cells were put into the incubator for 2-3 days, without replacing the culture medium.
At the end of the second or third day of treatment, the differentiation of the cells into granulocytes was measured by the NBT dye reduction and the spectrophotomectric assay of the samples.
The retinoic acid was dissolved in the culture medium with a solution of DMSO 1 mM. Control cultures were treated with equivalent volumes of DMSO, since this compound (DMSO) can be differentiating in certain experimental conditions.
To measure the differentiative effect, 500.000 cells have been gathered from each sample, centrifuged and re-suspended in 1 ml of RPMI 1640 culture with 10% serum, 1 mg/ml of nitroblue tetrazolium (NBT) and 100 ng of PMA. The re-suspended cells were incubated at 37° C. for 20-60 min. […]
The samples were sonicated to complete lysis and then read with a spectrophotometer at a wave length of 540 nm.

PPARγ receptor = molecular target: T1, PPARγ receptor (Homo sapiens, UniProt P37231); experiment: Activation of PPARγ: cellular transfection with PPAR-γ plasmid and TK-PPAR-Reluc luciferase reporter vector; details: NIH-3T3 murine fibroblasts, 24 hour-treatment, spirolaxine 40 nM, FIG. 1
T1 sequence (P37231 1-505): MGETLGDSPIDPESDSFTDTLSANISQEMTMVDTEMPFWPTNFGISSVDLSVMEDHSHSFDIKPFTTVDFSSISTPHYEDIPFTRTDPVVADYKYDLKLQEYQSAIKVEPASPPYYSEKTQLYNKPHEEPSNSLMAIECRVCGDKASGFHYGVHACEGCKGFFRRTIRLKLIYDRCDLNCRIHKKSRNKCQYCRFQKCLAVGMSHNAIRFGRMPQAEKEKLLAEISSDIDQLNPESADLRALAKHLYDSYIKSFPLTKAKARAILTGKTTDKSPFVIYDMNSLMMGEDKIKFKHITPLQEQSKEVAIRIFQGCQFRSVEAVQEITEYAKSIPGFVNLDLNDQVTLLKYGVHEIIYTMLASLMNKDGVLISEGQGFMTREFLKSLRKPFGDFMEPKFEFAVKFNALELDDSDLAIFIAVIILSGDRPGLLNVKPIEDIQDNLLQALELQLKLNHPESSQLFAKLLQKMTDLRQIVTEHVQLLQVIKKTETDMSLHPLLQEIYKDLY
Protocol: The activation of the expression of the luciferase was put into evidence by transfecting the NIH-3T3 murine fibroblasts with the PPAR-γ plasmid and the TK-PPAR-Reluc reporter vector; the luciferase activity was measured after 24 hour-treatment with the spirolaxine at a concentration of 40 nM.

| luciferase activity mediated by the TK-PPAR-Reluc reporter vector (index of activation of the receptor) versus control (PPARγ receptor) | SMILES | differentiation in NB4 cells (NBT reduction) ([1]; ATRA alone at 10^−7 M) | differentiation in NB4 cells (NBT reduction) ([1]; ST 1397 alone at 0,1, 0,5 and 1 μM) |
| --- | --- | --- | --- |
|  | CC1=C(/C=C/C(C)=C/C=C/C(C)=C/C(=O)O)C(C)(C)CCC1 [ATRA, all-trans retinoic acid, reference compound] | differentiative effect was already well known |  |
| seven times higher than the control | COc1cc(O)cc2c1C(=O)OC2CCCCCC1CCCC2(CCC(C)O2)O1 (stereo not drawn) [spirolaxine] |  | does not induce differentiation |

From patent publication US7276533B2, “Compositions useful for the treatment of pathologies responding to the activation of PPAR-gamma receptor” (Sigma-Tau Industrie Farmaceutiche Riunite S.p.A., priority 2001, dated 2007)
